In brackets after ≈: the same amount, converted by molar mass.

A word on the MIC: it is the lowest concentration found to suppress growth. A lower MIC goes with inhibition by little substance.

For assay [1], the system named is Nocardia corallina. The assay can be described thus: MIC by serial dilution. Type of assay: cell-based. The conditions noted are these: Gordonia rubripertincta. As to the method: (§1) Antibiotic activity, which is assumed to be based on the inhibition of the RNA polymerase, was tested against several gram-positive and gram-negative bacteria and Saccharomyces cerevisiae, including a Rifampicin resistant Staphylococcus aureus clinical isolate.
(§2) The microorganisms tested were grown on 1% peptone, 0.1% meat extract, 0.1% yeast extract medium containing 1.5% agar at pH 7.0. MIC values were determined by serial dilution. Table 2: Antimicrobial activity of Etnangien methylester in comparison to Etnangien acid 1

Assay [2] concerns Bacillus subtilis. The assay can be described thus: MIC by serial dilution. Type of assay: cell-based. As to the method: as §1, §2
Assay [3] concerns Micrococcus luteus. The experiment in a line: MIC by serial dilution. The class given is cell-based. As to the method:
as §1, §2

The subject of assay [4] is E. coli. The experiment in a line: MIC by serial dilution. Type of assay: cell-based. The conditions noted are these: Escherichia coli. As to the method: as §1, §2
For assay [5], the system named is Corynebacterium glutamicum (DSM 20300). The experiment in a line: MIC by serial dilution. Type of assay: cell-based. The conditions noted are these: DSM20300. On the procedure:
as §1, §2

Assay [6] concerns S. aureus, Rifampicin resistant. The experiment in a line: MIC by serial dilution. The conditions noted are these: Staphylococcus aureus. Type of assay: cell-based. On the procedure:
as §1, §2

For assay [7], the system named is Saccharomyces cerevisiae. The experiment in a line: MIC by serial dilution. The class given is cell-based. On the procedure:
as §1, §2

The subject of assay [8] is Staphylococcus aureus. The experiment in a line: MIC by serial dilution. Type of assay: cell-based. As to the method:
as §1, §2

For assay [9], the target named is T1, HIV I reverse transcriptase (HIVRT) (Human immunodeficiency virus type 1 group M subtype B, UniProt P04585).
T1 construct: HIV I reverse transcriptase (HIVRT)
The assay can be described thus: Nucleic acid polymerase inhibition, in vitro assay. Type of assay: biochemical. The conditions noted are these: result in words. On the procedure: (§3) Similar antiviral activity is found for the Etnangien esters according to the invention.
(§4) Measurement results showing the nucleic acid polymerase inhibition by Etnangien 1 are shown in Figure 2 for E. coli RNA polymerase (EcRNAP), E. coli DNA polymerase (EcDNAP), and HIV I reverse transcriptase (HIVRT), and in Figure 3 for Moloney murine leukemia virus reverse transcriptase (MuLVRT). In vitro assays were performed according to Richardson et al. (J. Biol. Chem. 222-232 (1964)) and Houts et al. (J. Virol. 517-522(1979)). Maximum inhibition for E. coli polymerases was found for concentrations of 50 to 60 µg/mL, although E. coli itself was rather resistant.

Assay [10] deals with T2, Moloney murine leukemia virus reverse transcriptase (MuLVRT) (Moloney murine leukemia virus, UniProt P03355).
T2 construct: Moloney murine leukemia virus reverse transcriptase (MuLVRT)
The assay can be described thus: Nucleic acid polymerase inhibition, in vitro assay. The class given is biochemical. On the procedure: as §3, §4

Consider `COC(=O)CC/C(C)=C/C(O)C/C=C/C=C/C=C/C=C/C=C/C(C)=C/C(O)C(C)C1CC(O)CCCC(OC)C/C=C\C=C\CC(C)C(O)C(C)C(O)C(C)C(O)CC(=O)O1` (stereo not drawn) [Etnangien methylester], for which the MIC in [1] is 0.12 µg/mL (≈ 0.14 µM); in [2], 20 µg/mL (≈ 23.4 µM); in [3] it was 0.39 µg/mL (≈ 0.456 µM); in assay [4] it was above 80 µg/mL; in assay [5], 0.24 µg/mL (≈ 0.281 µM); in [6] it was 3.1 µg/mL (≈ 3.63 µM). The figures for the MIC in assay [7] and in assay [8] were above 40 µg/mL and 2.5 µg/mL (≈ 2.92 µM), respectively.
Molecule `COC1C/C=C\C=C\CC(C)C(O)C(C)C(O)C(C)C(O)CC(=O)OC(C(C)C(O)/C=C(C)/C=C/C=C/C=C/C=C/C=C/CC(O)/C=C(\C)CCC(=O)O)CC(O)CCC1` (stereo not drawn) [Etnangien] showed a minimum inhibitory concentration (MIC) in assay [4] above 80 µg/mL.
On to Etnangien, for which, in [9], the “inhibition of viral reverse transcriptase” value is reported as “potent inhibitor”. In addition, the “concentration of maximum inhibition” value in [10] (MuLVRT, Figure 3) turned out to be 5 µg/mL. In addition, the “inhibition of reverse transcriptase” value in assay [10] (at concentrations of 5 µg/mL) is given as “inhibited completely”.
